Laboratory results as given in patent US10597388B2, “Pyridazinone herbicides” (FMC CORPORATION, priority 2014, dated 2020).

How the values were obtained:
Assay type in all cases: in vivo
[1] = system: wheat (Triticum aestivum); assay: Test A greenhouse herbicide test, pre- and postemergence; settings: Postemergence
How it was run: (§1)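 Visual injury ratings, 0 (no effect) to 100 (complete control), versus untreated plants after roughly 10 d in a greenhouse. Compounds, formulated in a surfactant-containing non-phytotoxic solvent, were sprayed on loam–sand soil after sowing (pre) or on one- to two-leaf plants 2–10 cm tall (post).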

kochia (Kochia scoparia) = assay: as above
How it was run: as §1

[2] = system: ragweed (common ragweed, Ambrosia elatior); assay: as above
How it was run: as §1

[3] = system: barnyardgrass (Echinochloa crus-galli); assay: as above
How it was run: as §1

[4] = system: ryegrass, Italian (Italian ryegrass, Lolium multiflorum); assay: as above
How it was run: as §1

[5] = system: pigweed (Amaranthus retroflexus); assay: as above
How it was run: as §1

corn (Zea mays) = assay: as above; settings: Postemergence
How it was run: as §1

[6] = system: foxtail, giant (giant foxtail, Setaria faberii); assay: as above
How it was run: as §1

[7] = system: sedge, umbrella (small-flower umbrella sedge, Cyperus difformis); assay: Test B flooded paddy test; settings: 250 g ai/ha, Flood; visual rating on scale of 0 to 100 where 0 is no effect and 100 is complete control; 13 to 15 d after treatment
How it was run: (§2)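 Ratings use a 0-100 visual scale, where 100 is complete control, and compare treated plants with controls after 13 to 15 d of greenhouse growth. Compound went straight into paddy water kept 3 cm over the soil surface, applied to seedlings at the 2-leaf stage.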

rice (Oryza sativa) = assay: Test B flooded paddy test; settings: 250 g ai/ha, Flood; visual rating on scale of 0 to 100 where 0 is no effect and 100 is complete control; 13 to 15 d after treatment
How it was run: as §2

[8] = system: barnyardgrass (Echinochloa crus-galli); assay: Test B flooded paddy test; settings: 250 g ai/ha, Flood; visual rating on scale of 0 to 100 where 0 is no effect and 100 is complete control; 13 to 15 d after treatment
How it was run: as §2

[9] = system: ducksalad (Heteranthera limosa); assay: Test B flooded paddy test; settings: 250 g ai/ha, Flood; visual rating on scale of 0 to 100 where 0 is no effect and 100 is complete control; 13 to 15 d after treatment
How it was run: as §2

[10] = system: blackgrass (Alopecurus myosuroides); assay: Test A greenhouse herbicide test, postemergence
How it was run: (§3)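 Seedlings in a loam soil and sand mix received formulated compound postemergence at the one- to two-leaf stage. Greenhouse holding lasts approximately 10 d, then injury is scored visually relative to untreated plants, 0 meaning no effect and 100 complete control.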

[11] = system: galium (catchweed bedstraw, Galium aparine); assay: Test A greenhouse herbicide test, postemergence
How it was run: as §3

[12] = 125 g ai/ha, 0 to 100 scale where 0 is no effect and 100 is complete control
[13] = 500 g ai/ha, 0 to 100 scale, 0 is no effect, 100 is complete control
[14] = Postemergence, 125 g ai/ha, 0 to 100 scale where 0 is no effect and 100 is complete control
[15] = Postemergence, 500 g ai/ha, 0 to 100 scale, 0 is no effect, 100 is complete control
[16] = Preemergence, 125 g ai/ha, 0 to 100 scale where 0 is no effect and 100 is complete control
[17] = Preemergence, 500 g ai/ha, 0 to 100 scale, 0 no effect, 100 complete control
[18] = 500 g ai/ha, visual rating after approx. 10 d, 0 to 100 scale (0 no effect, 100 complete control)
[19] = Postemergence, 500 g ai/ha, visual rating after approx. 10 d, 0 to 100 scale (0 no effect, 100 complete control)
[20] = Preemergence, 500 g ai/ha, 0 to 100 scale where 0 is no effect and 100 is complete control

Compound	Plant response rating, Wheat [1, 12]	Plant response rating, Kochia (kochia (Kochia scoparia); [14])	Kochia plant response rating (kochia (Kochia scoparia); [16])	Plant response rating, Ragweed [2, 14]	Ragweed plant response rating [2, 16]	Plant response rating, Barnyardgrass [3, 14]	Barnyardgrass plant response rating [3, 16]	Plant response rating, Ryegrass, Italian [4, 14]	Ryegrass, Italian plant response rating [4, 16]	Plant response rating, Pigweed [5, 14]	Pigweed plant response rating [5, 16]	Plant response rating, Corn (corn (Zea mays); [12])	Plant response rating, Foxtail, Giant [6, 14]	Foxtail, Giant plant response rating [6, 16]	Plant response rating, Sedge, Umbrella [7]	Plant response rating, Rice (rice (Oryza sativa))	Plant response rating, Barnyardgrass [8]	Plant response rating, Ducksalad [9]	Plant response rating, Blackgrass [10, 12]	Plant response rating, Galium [11, 12]	further results
Cc1cc(C)c2c(-c3c(OC(=O)C(C)(C)C)c(C)nn(C)c3=O)c(C)sc2c1 [Compound 45]	0	0	0	0	0	0	0	0	0	0	0	0	0	0	0	0	0	0	0	0	Wheat plant response rating [1, 13]: 0; Kochia plant response rating (kochia (Kochia scoparia); [15]): 0; Plant response rating, Kochia (kochia (Kochia scoparia); [17]): 0; Ragweed plant response rating [2, 15]: 0; Plant response rating, Ragweed [2, 17]: 0; Barnyardgrass plant response rating [3, 15]: 0; Plant response rating, Barnyardgrass [3, 17]: 0; Ryegrass, Italian plant response rating [4, 15]: 0; Plant response rating, Ryegrass, Italian [4, 17]: 0; Pigweed plant response rating [5, 15]: 0; Plant response rating, Pigweed [5, 17]: 0; Corn plant response rating (corn (Zea mays); [13]): 0; Foxtail, Giant plant response rating [6, 15]: 0; Plant response rating, Foxtail, Giant [6, 17]: 0; Blackgrass plant response rating [10, 13]: 0; Galium plant response rating [11, 13]: 0
COc1nn(C)c(=O)c(-c2c(C)sc3ccc(Cl)cc23)c1OS(C)(=O)=O [Compound 135]	0	0	0	30	30	0	0	40	20	0	30	0	0	20	0	0	0	0	0	60	Plant response rating, Wheat [1, 18]: 0; Plant response rating, Kochia (kochia (Kochia scoparia); [19]): 0; Plant response rating, Kochia (kochia (Kochia scoparia); [20]): 0; Plant response rating, Ragweed [2, 19]: 60; Plant response rating, Ragweed [2, 20]: 60; Plant response rating, Barnyardgrass [3, 19]: 0; Plant response rating, Barnyardgrass [3, 20]: 0; Plant response rating, Ryegrass, Italian [4, 19]: 70; Plant response rating, Ryegrass, Italian [4, 20]: 60; Plant response rating, Pigweed [5, 19]: 20; Plant response rating, Pigweed [5, 20]: 70; Plant response rating, Corn (corn (Zea mays); [18]): 20; Plant response rating, Foxtail, Giant [6, 19]: 0; Plant response rating, Foxtail, Giant [6, 20]: 30; Plant response rating, Blackgrass [10, 18]: 30; Plant response rating, Galium [11, 18]: 90
